PubChem BioAssay (NCI)
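Exposure lasted 48 hours, with cells grown in 96-well plates and compounds tested at five concentrations. At the GI50, growth is halved. TGI denotes the concentration required for complete inhibition of growth.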

Legend:
Assay in all cases: NCI anticancer screen, dose series, 48 h
[1] = test system: NCI-H226 lung
[2] = test system: 786-0 renal
[3] = test system: TK-10 renal
[4] = test system: CCRF-CEM leukemia
[5] = test system: HS 578T breast
[6] = test system: NCI-H23 lung
[7] = test system: SK-MEL-2 melanoma
[8] = test system: MOLT-4 leukemia
[9] = test system: HOP-62 NSCLC
[10] = test system: MDA-MB-231 breast
[11] = test system: IGROV1 ovarian
[12] = test system: CAKI-1 renal
[13] = test system: T-47D breast
[14] = test system: MDA-MB-435
[15] = test system: SW-620 colon
[16] = test system: RPMI-8226 leukemia
[17] = test system: OVCAR-4 ovarian
[18] = test system: UO-31 renal
[19] = test system: BT-549 breast
[20] = test system: SF-268 CNS
[21] = test system: SK-MEL-5 melanoma
[22] = test system: COLO 205 colon
[23] = test system: NCI-H460 lung
[24] = test system: ACHN renal
[25] = test system: SNB-75 CNS
[26] = test system: OVCAR-8 ovarian
[27] = test system: HCT-15 colon
[28] = test system: HOP-92 NSCLC
[29] = test system: K-562 leukemia
[30] = test system: UACC-257 melanoma
[31] = test system: PC-3 prostate
[32] = test system: SF-295 CNS
[33] = test system: HT29 colon
[34] = test system: HCT-116 colon
[35] = test system: MALME-3M melanoma
[36] = test system: HL-60(TB) leukemia
[37] = test system: A498 renal
[38] = test system: DU-145 prostate
[39] = test system: U251 CNS
[40] = test system: SK-OV-3 ovarian
[41] = test system: SR leukemia
[42] = test system: OVCAR-5 ovarian
[43] = test system: SN12C renal
[44] = test system: HCC-2998 colon
[45] = test system: NCI/ADR-RES ovarian
[46] = test system: SNB-19 CNS
[47] = test system: RXF 393 renal
[48] = test system: SK-MEL-28 melanoma
[49] = test system: NCI-H522 lung
[50] = test system: SF-539 CNS
[51] = test system: UACC-62 melanoma
[52] = test system: M14 melanoma
[53] = test system: KM12 colon
[54] = test system: A549 NSCLC
[55] = test system: OVCAR-3 ovarian
[56] = test system: MCF7 breast

## COc1ccc(C2CC(=O)Nc3c2c(C)nn3-c2nc3ccccc3[nH]2)cc1 (configuration not stated)
[1]
  GI50: 2.58 µM
  TGI: 7.9 µM
[2]
  GI50: 3.82 µM
  TGI: > 33.3 µM
[3]
  GI50: 4.08 µM
  TGI: > 38.9 µM
[4]
  GI50: 2.11 µM
  TGI: > 27.9 µM
[5]
  GI50: 3.19 µM
  TGI: 17.7 µM
[6]
  GI50: 2.57 µM
  TGI: 6.83 µM
[7]
  GI50: 3.45 µM
  TGI: 9.43 µM
[8]
  GI50: 0.0589 µM
  TGI: 0.326 µM
[9]
  GI50: 2.56 µM
  TGI: 6.55 µM
[10]
  GI50: 2.25 µM
  TGI: 5.3 µM
[11]
  GI50: 2.38 µM
  TGI: 5.26 µM
[12]
  GI50: 2.96 µM
  TGI: 9.12 µM
[13]
  GI50: 3.92 µM
  TGI: > 41.9 µM
[14]
  GI50: 2.55 µM
  TGI: 6.84 µM
[15]
  GI50: 3.33 µM
  TGI: 20.6 µM
[16]
  GI50: 2.41 µM
  TGI: 5.48 µM
[17]
  GI50: 3.71 µM
  TGI: > 59.1 µM
[18]
  GI50: 3.19 µM
  TGI: 15.8 µM
[19]
  GI50: 3.33 µM
  TGI: 20 µM
[20]
  GI50: 3.86 µM
  TGI: 97.7 µM
[21]
  GI50: 1.82 µM
  TGI: 3.71 µM
[22]
  GI50: 3.59 µM
  TGI: 14.7 µM
[23]
  GI50: 2.39 µM
  TGI: 5.89 µM
[24]
  GI50: 3.55 µM
  TGI: > 57.4 µM
[25]
  GI50: 2.36 µM
  TGI: 9.12 µM
[26]
  GI50: 3.76 µM
  TGI: > 100 µM
[27]
  GI50: 3.49 µM
  TGI: > 100 µM
[28]
  GI50: 2.34 µM
  TGI: 6.72 µM
[29]
  GI50: 2.9 µM
  TGI: > 35.5 µM
[30]
  GI50: 2.65 µM
  TGI: 8.21 µM
[31]
  GI50: 3.21 µM
  TGI: 48.9 µM
[32]
  GI50: 1.7 µM
  TGI: 4.19 µM
[33]
  GI50: 3.47 µM
  TGI: > 30.4 µM
[34]
  GI50: 2.12 µM
  TGI: 4.38 µM
[35]
  GI50: 2.22 µM
  TGI: 8.04 µM
[36]
  GI50: 3.13 µM
  TGI: 9.83 µM
[37]
  GI50: 1.89 µM
  TGI: 5.46 µM
[38]
  GI50: 3.64 µM
  TGI: 16.8 µM
[39]
  GI50: 2.56 µM
  TGI: 7.04 µM
[40]
  GI50: 3.23 µM
  TGI: 7.83 µM
[41]
  GI50: 2.96 µM
  TGI: > 25.1 µM
[42]
  GI50: 4.52 µM
  TGI: > 70.1 µM
[43]
  GI50: 3.28 µM
  TGI: > 53.7 µM
[44]
  GI50: 5.67 µM
  TGI: > 58.5 µM
[45]
  GI50: 5.61 µM
  TGI: > 100 µM
[46]
  GI50: 4.72 µM
  TGI: > 100 µM
[47]
  GI50: 2.63 µM
  TGI: 8.92 µM
[48]
  GI50: 3.92 µM
  TGI: > 55.9 µM
[49]
  GI50: 2.67 µM
  TGI: 7.15 µM
[50]
  GI50: 2.16 µM
  TGI: 4.94 µM
[51]
  GI50: 1.94 µM
  TGI: 4.16 µM
[52]
  GI50: 2.54 µM
  TGI: 7.12 µM
[53]
  GI50: 2.72 µM
  TGI: 7.09 µM
[54]
  GI50: 3.04 µM
  TGI: 15.1 µM
[55]
  GI50: 2.54 µM
  TGI: 5.72 µM
[56]
  GI50: 3.11 µM
  TGI: > 34 µM
